Assay results: patent EP1336402B1, “Association of diguanosine tetraphosphate and nicotinic derivatives used for the treatment of capillary disorders, in particular the treatment of hair loss” (Pierre Fabre Dermo-Cosmetique, priority 2002, dated 2003)

Experiments:
[1] = tested on: co-culture de cellules endothéliales humaines et de fibroblastes humains; experiment: in vitro angiogenesis model: co-culture, tubule length quantified by image analysis after 12 days; assay type: cell-based; settings: 12 days of culture, untreated control 4150
Source text: Par ailleurs, la composante vasculaire jouant un rôle fondamental dans la croissance du follicule pileux, l'influence des principes actifs précédemment décrits sur ce paramètre a été évaluée sur un modèle d'angiogénèse in vitro.
Le modèle repose sur une co-culture de cellules endothéliales humaines et de fibroblastes humains (kit angiogénèse Bioprédic International), qui est réalisée en présence ou pas des actifs à tester.
Les cellules endothéliales migrent à travers la matrice pour former des structures tubulaires, qui sont quantifiées au bout de 12 jours de culture. La quantification de la longueur des capillaires est réalisée par analyse d'image.

[2] = tested on: cellules de la papille dermique du follicule pileux; experiment: cell metabolism of dermal papilla cells in monolayer culture; assay type: cell-based; settings: for augmentation du métabolisme cellulaire: culture mono-couche, concentrations not given
Source text: L'intérêt de l'association de ces deux actifs a été confirmé sur d'autres modèles cellulaires, notamment sur le métabolisme des cellules de la papille dermique du follicule pileux en culture mono-couche, où l'association GP4G + nicotinate de tocophérol a montré une augmentation de + 26,2 % du métabolisme cellulaire, supérieure à celle des actifs testés seuls (12,6 % et 18,3 % respectivement).

Nc1cc(N2CCCCC2)nc(N)[n+]1[O-] [Minoxidil, reference compound]
LONGUEUR DES TUBULES PAR CHAMP DE COMPTAGE Moyenne ([1]; Minoxidil 25 µg/ml): 7662

Cc1ccc(C(=O)Nc2ccc(S(=O)(=O)O)c3cc(S(=O)(=O)O)cc(S(=O)(=O)O)c23)cc1NC(=O)c1cccc(NC(=O)Nc2cccc(C(=O)Nc3cc(C(=O)Nc4ccc(S(=O)(=O)O)c5cc(S(=O)(=O)O)cc(S(=O)(=O)O)c45)ccc3C)c2)c1 [Suramine, reference compound]
LONGUEUR DES TUBULES PAR CHAMP DE COMPTAGE Moyenne ([1]; Suramine 20 µM): 3072

diguanosine tétraphosphate [GP4G]
LONGUEUR DES TUBULES PAR CHAMP DE COMPTAGE Moyenne ([1]; GP4G 0.01 %): 3814
LONGUEUR DES TUBULES PAR CHAMP DE COMPTAGE Moyenne ([1]; GP4G 0.1 %): 4040
LONGUEUR DES TUBULES PAR CHAMP DE COMPTAGE Moyenne ([1]; GP4G 1.0 %): 6803
augmentation du métabolisme cellulaire [2]: 12,6%
métabolisme des cellules de la papille dermique (CPD) ([2]; en présence de GP4G, result in words): augmentation fonction-dose

Cc1c(C)c2c(c(C)c1OC(=O)c1cccnc1)CCC(C)(CCCC(C)CCCC(C)CCCC(C)C)O2 (stereo not drawn) [Nicotinate de tocophérol, Alpha Tocophéryl Nicotinate]
LONGUEUR DES TUBULES PAR CHAMP DE COMPTAGE Moyenne ([1]; 1 µg/ml): 4015
LONGUEUR DES TUBULES PAR CHAMP DE COMPTAGE Moyenne ([1]; 10 µg/ml): 4634
LONGUEUR DES TUBULES PAR CHAMP DE COMPTAGE Moyenne ([1]; 20 µg/ml): 5363
augmentation du métabolisme cellulaire [2]: 18,3%
